For the assay, the system named is 186277-243-T-J2-PDC multi-cell spheroid viability. In words: Anticancer human tumor 186277-243-T-J2-PDC patient-derived colon adenocarcinoma cell line growth inhibition [PI3K]. To be noted: for viability, T/C: stronger effect = lower value. The procedure, abridged:
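Viability of mixed-cell spheroids was determined after exposure to pairwise combinations, one partner being inavolisib, alpelisib, duvelisib or copanlisib. Highest tested concentration matched clinical Cmax where known and 10 microM where not, descending in half-log steps.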

The mark [1] stands for this setting: curve of first compound, second compound 0.0316 µM.
[2] abbreviates: curve of first compound, second compound 0.1 µM.
Setting [3] is: curve of first compound, second compound 0.316 µM.
Where [4] appears, read: curve of first compound, second compound 1 µM.
Setting [5] is: second compound 0.0316 µM, first compound 0.0316 µM.
[6] abbreviates: second compound 0.0316 µM, first compound 0.1 µM.
Where [7] appears, read: second compound 0.0316 µM, first compound 0.316 µM.
The mark [8] stands for this setting: second compound 0.0316 µM, first compound 1 µM.
Setting [9] is: second compound 0.0316 µM, first compound 3.16 µM.
The mark [10] stands for this setting: second compound 0.0316 µM, first compound 10 µM.
[11] abbreviates: second compound 0.1 µM, first compound 0.0316 µM.
Setting [12] is: second compound 0.1 µM, first compound 0.1 µM.
[13] abbreviates: second compound 0.1 µM, first compound 0.316 µM.
Setting [14] is: second compound 0.1 µM, first compound 1 µM.
Setting [15] is: second compound 0.1 µM, first compound 3.16 µM.
[16] abbreviates: second compound 0.1 µM, first compound 10 µM.
[17] abbreviates: second compound 0.316 µM, first compound 0.0316 µM.
The mark [18] stands for this setting: second compound 0.316 µM, first compound 0.1 µM.
[19] abbreviates: second compound 0.316 µM, first compound 0.316 µM.
The mark [20] stands for this setting: second compound 0.316 µM, first compound 1 µM.
The mark [21] stands for this setting: second compound 0.316 µM, first compound 3.16 µM.
The mark [22] stands for this setting: second compound 0.316 µM, first compound 10 µM.
The mark [23] stands for this setting: second compound 1 µM, first compound 0.0316 µM.
Where [24] appears, read: second compound 1 µM, first compound 0.1 µM.
Where [25] appears, read: second compound 1 µM, first compound 0.316 µM.
[26] abbreviates: second compound 1 µM, first compound 1 µM.
The mark [27] stands for this setting: second compound 1 µM, first compound 3.16 µM.
Setting [28] is: second compound 1 µM, first compound 10 µM.
Where [29] appears, read: curve of first compound, second compound 3.16 µM.
[30] abbreviates: curve of first compound, second compound 10 µM.
Setting [31] is: second compound 3.16 µM, first compound 0.0316 µM.
Where [32] appears, read: second compound 3.16 µM, first compound 0.1 µM.
Where [33] appears, read: second compound 3.16 µM, first compound 0.316 µM.
Setting [34] is: second compound 3.16 µM, first compound 1 µM.
[35] abbreviates: second compound 3.16 µM, first compound 3.16 µM.
[36] abbreviates: second compound 3.16 µM, first compound 10 µM.
Setting [37] is: second compound 10 µM, first compound 0.0316 µM.
Setting [38] is: second compound 10 µM, first compound 0.1 µM.
Setting [39] is: second compound 10 µM, first compound 0.316 µM.
Where [40] appears, read: second compound 10 µM, first compound 1 µM.
[41] abbreviates: second compound 10 µM, first compound 3.16 µM.
Where [42] appears, read: second compound 10 µM, first compound 10 µM.

This note sets out measurements from PubChem BioAssay AID1963983 (Molecular Pharmacology Branch, DTP, NCI, 2024).

The structures appear in SMILES notation. A value given as a limit tells only on which side of the number the result lay.
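Also: spheroids exposed to compounds for seven days before viability reading.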
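For viability, T/C in this document: 100% = DMSO vehicle control viability.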

As to `CCCS(=O)(=O)Nc1ccc(F)c(C(=O)c2c[nH]c3ncc(-c4ccc(Cl)cc4)cc23)c1F`, the viability, T/C runs as follows: (compound 0.0316 µM) 94.8% [middle of 4 runs]; (compound 0.1 µM) 89.2% [middle of 4 runs]; (compound 0.316 µM) 86.2% [middle of 4 runs]; (compound 1 µM) 86.7% [middle of 4 runs]; (compound 3.16 µM) 84.1% [middle of 4 runs]; (compound 10 µM) 6.39% [middle of 4 runs]. Besides, the IC50 (curve of compound) is 5.39 µM [middle of 4 runs].

In the case of `Cn1nccc1Nc1nccc(-c2ccn(C(CO)c3ccc(Cl)c(F)c3)c(=O)c2)n1` (centres undefined) + COc1c(OCCCN2CCOCC2)ccc2c3n(c(=NC(=O)c4cnc(N)nc4)nc12)CCN3, the IC50 is, setting by setting: (curve of first compound, second compound 0.00316 µM) 1.08 µM; (curve of first compound, second compound 0.01 µM) 0.502 µM; under setting [1], less than 0.0316 µM; under setting [2], less than 0.0316 µM; under setting [3], less than 0.0316 µM; under setting [4], less than 0.0316 µM. In addition, the viability, T/C (second compound 0.00316 µM, first compound 0.0316 µM) is 109%; the viability, T/C (second compound 0.00316 µM, first compound 0.1 µM) is 107%; the viability, T/C (second compound 0.00316 µM, first compound 0.316 µM) is 89.2%; the viability, T/C (second compound 0.00316 µM, first compound 1 µM) is 51.6%; the viability, T/C (second compound 0.00316 µM, first compound 3.16 µM) was 24.3%; the viability, T/C (second compound 0.00316 µM, first compound 10 µM) is 15.1%. In addition, the viability, T/C was 86.3% (second compound 0.01 µM, first compound 0.0316 µM); 94.6% (second compound 0.01 µM, first compound 0.1 µM); 57.7% (second compound 0.01 µM, first compound 0.316 µM); 32.6% (second compound 0.01 µM, first compound 1 µM); 14.7% (second compound 0.01 µM, first compound 3.16 µM); 5.46% (second compound 0.01 µM, first compound 10 µM). Besides, the viability, T/C runs as follows: under setting [5], 47.2%; under setting [6], 34.6%; under setting [7], 18.4%; under setting [8], 10.2%; under setting [9], 6.79%; under setting [10], 8.22%. Besides, the viability, T/C is, setting by setting: under setting [11], 9.72%; under setting [12], 8.17%; under setting [13], 6.57%; under setting [14], 2.91%; under setting [15], 2.2%; under setting [16], 1.76%. In addition, the viability, T/C was 3.78% under setting [17]; 6.01% under setting [18]; 1.78% under setting [19]; 1.08% under setting [20]; 1.43% under setting [21]; 0.17% under setting [22]. Further, the viability, T/C was 2.33% under setting [23]; 2.25% under setting [24]; 0.33% under setting [25]; 0.28% under setting [26]; 0.15% under setting [27]; 0.27% under setting [28].

`CC1(C)CCC(Nc2ncc(C(F)(F)F)c(-c3c[nH]c4c(P(C)(C)=O)c(C#N)ccc34)n2)CN1` (centres undefined): the viability, T/C (compound 0.0316 µM) was 75.1% [middle of 4 runs]; the viability, T/C (compound 0.1 µM) was 55.2% [middle of 4 runs]; the viability, T/C (compound 0.316 µM) was 50.5% [middle of 4 runs]; the viability, T/C (compound 1 µM) is 59.2% [middle of 4 runs]; the viability, T/C (compound 3.16 µM) is 62.6% [middle of 4 runs]; the viability, T/C (compound 10 µM) is 0.77% [middle of 4 runs]. Further, the IC50 (curve of compound) is 3.64 µM [middle of 4 runs].

Regarding `CC1(C)CCC(CN2CCN(c3ccc(C(=O)NS(=O)(=O)c4ccc(NCC5CCOCC5)c([N+](=O)[O-])c4)c(Oc4cnc5[nH]ccc5c4)c3)CC2)=C(c2ccc(Cl)cc2)C1`, the viability, T/C (compound 0.0316 µM) was 98% [middle of 4 runs]; the viability, T/C (compound 0.1 µM) was 105% [middle of 4 runs]; the viability, T/C (compound 0.316 µM) is 100% [middle of 4 runs]; the viability, T/C (compound 1 µM) was 97.9% [middle of 4 runs].

As for `C[C@@H](NC(=O)c1ncnc(N)c1Cl)c1ncc(C(=O)Nc2cc(C(F)(F)F)c(Cl)cn2)s1` + CC(Nc1ncnc2nc[nH]c12)c1cc2cccc(Cl)c2c(=O)n1-c1ccccc1, the IC50 is more than 10 µM under setting [1]; more than 10 µM under setting [2]; more than 10 µM under setting [3]; more than 10 µM under setting [4]; more than 10 µM under setting [29]; 6.16 µM under setting [30]. Also, the viability, T/C was 92.6% under setting [5]; 89.9% under setting [6]; 93.7% under setting [7]; 83.4% under setting [8]; 105% under setting [9]; 79.1% under setting [10]. Besides, the viability, T/C is 84.3% under setting [11]; 87.2% under setting [12]; 90.1% under setting [13]; 105% under setting [14]; 108% under setting [15]; 88% under setting [16]. Moreover, the viability, T/C under setting [17] is 94.5%; the viability, T/C under setting [18] was 107%; the viability, T/C under setting [19] is 94.3%; the viability, T/C under setting [20] is 95%; the viability, T/C under setting [21] was 105%; the viability, T/C under setting [22] is 80.5%. Moreover, the viability, T/C is 88.1% under setting [23]; 105% under setting [24]; 96.7% under setting [25]; 91% under setting [26]; 102% under setting [27]; 61.9% under setting [28]. The viability, T/C by setting is: under setting [31], 107%; under setting [32], 97.2%; under setting [33], 104%; under setting [34], 99.3%; under setting [35], 93.3%; under setting [36], 66.4%. For the same compound, the viability, T/C reads like this: under setting [37], 84.8%; under setting [38], 91.7%; under setting [39], 107%; under setting [40], 95.5%; under setting [41], 72.8%; under setting [42], 33.5%.

Consider `CC1(C)CCC(CN2CCN(c3ccc(C(=O)NS(=O)(=O)c4ccc(NCC5CCOCC5)c([N+](=O)[O-])c4)c(Oc4cnc5[nH]ccc5c4)c3)CC2)=C(c2ccc(Cl)cc2)C1` + CC(Nc1ncnc2nc[nH]c12)c1cc2cccc(Cl)c2c(=O)n1-c1ccccc1, for which the IC50 came out at 4.86 µM under setting [1]; 4.45 µM under setting [2]; 5.63 µM under setting [3]; 4.84 µM under setting [4]; 5.17 µM under setting [29]; 4.67 µM under setting [30]. In addition, the viability, T/C reads like this: under setting [5], 96.6%; under setting [6], 96.2%; under setting [7], 95%; under setting [8], 105%; under setting [9], 77.3%; under setting [10], 4.52%. For the same compound, the viability, T/C runs as follows: under setting [11], 99.5%; under setting [12], 116%; under setting [13], 96.7%; under setting [14], 92.2%; under setting [15], 70.5%; under setting [16], 4.02%. The viability, T/C by setting is: under setting [17], 97%; under setting [18], 108%; under setting [19], 91.8%; under setting [20], 98.6%; under setting [21], 92.1%; under setting [22], 8%. The viability, T/C runs as follows: under setting [23], 105%; under setting [24], 116%; under setting [25], 102%; under setting [26], 112%; under setting [27], 77%; under setting [28], 4.04%. Also, the viability, T/C was 112% under setting [31]; 115% under setting [32]; 106% under setting [33]; 103% under setting [34]; 85.9% under setting [35]; 3.14% under setting [36]. The viability, T/C runs as follows: under setting [37], 97%; under setting [38], 96.1%; under setting [39], 97.2%; under setting [40], 95.5%; under setting [41], 74.7%; under setting [42], 2.09%.

For orientation: viability, T/C means the ratio of treated to control. The term IC50 denotes the midpoint of a concentration-inhibition curve.
